From US20220323406A1, “METHODS AND COMPOSITIONS FOR DIFFERENTIATING STEM CELLS” (Massachusetts Institute of Technology, priority 2019, published 2022)

Key:
Conditions in all cases: primary screen
[1] = tested on: ENR+CD organoids (ISC to Paneth cell differentiation); experiment: Primary screen: CCh-stimulated lysozyme secretion LYZ.S, 2.5-D 384-well ENR+CD organoid differentiation; format: cell-based, mouse
Excerpt: (§1) High-throughput screening.

[2] = tested on: ENR+CD organoids; experiment: Primary screen: ATP (CellTiter-Glo 3D, CTG) cell number/viability, 2.5-D 384-well ENR+CD organoids;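 also: compounds given at plating and again on day 3 over a 6-day differentiation from ENR+CV stem-cell-enriched precursors, ATP measured on day 6, plate median as control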
[3] = tested on: ENR+CD organoids (ISC to Paneth cell differentiation); experiment: Primary screen: basal (non-stimulated) lysozyme secretion LYZ.NS, 2.5-D 384-well ENR+CD organoid differentiation; format: cell-based, mouse
Excerpt: as §1

[4] = 1st dose row of the treatment (0.08 uM by row order; dose not reprinted)
[5] = 2nd dose row of the treatment (0.40 uM by row order; dose not reprinted)
[6] = 3rd dose row of the treatment (2.00 uM by row order; dose not reprinted)
[7] = 4th dose row of the treatment (10.00 uM by row order; dose not reprinted)

| SMILES | SSMD.LYZ.S_Rep (strictly standardized mean difference) [1, 4] | Z.LYZ.S (standard z score) [1, 4] | SSMD.LYZ.S_Rep (strictly standardized mean difference) [1, 5] | Z.LYZ.S (standard z score) [1, 5] | SSMD.LYZ.S_Rep (strictly standardized mean difference) [1, 6] | Z.LYZ.S (standard z score) [1, 6] | SSMD.LYZ.S_Rep (strictly standardized mean difference) [1, 7] | Z.LYZ.S (standard z score) [1, 7] | Dose.FC.LYZ.S ([1]; dose 0.08 uM) | Dose.FC.LYZ.S ([1]; dose 0.40 uM) | Dose.FC.LYZ.S ([1]; dose 2.00 uM) | Dose.FC.LYZ.S ([1]; dose 10.00 uM) | SSMD.CTG.Rep (strictly standardized mean difference) [2, 4] | SSMD.CTG.Rep (strictly standardized mean difference) [2, 5] | SSMD.CTG.Rep (strictly standardized mean difference) [2, 6] | SSMD.CTG.Rep (strictly standardized mean difference) [2, 7] | Dose.FC.CTG ([2]; dose 0.08 uM) | Z.CTG (standard z score) ([2]; dose 0.08 uM) | Dose.FC.CTG ([2]; dose 0.40 uM) | Z.CTG (standard z score) ([2]; dose 0.40 uM) | also measured |
| --- | --- | --- | --- | --- | --- | --- | --- | --- | --- | --- | --- | --- | --- | --- | --- | --- | --- | --- | --- | --- | --- |
| CN1CCc2cc3c(cc2[C@H]1[C@@H]1OC(=O)c2c1ccc1c2OCO1)OCO3 [(+)-Bicuculline] | 0.545 | 1.005 | 0.216 | 0.221 | −0.164 | −0.169 | 0.264 | 0.465 | 0.155 log2 fold change | 0.034 log2 fold change | −0.026 log2 fold change | 0.072 log2 fold change | 0.472 | −0.078 | −0.237 | −0.405 | 0.318 log2 fold change | 0.760 | −0.029 log2 fold change | −0.069 | Dose.FC.CTG ([2]; dose 2.00 uM): −0.166 log2 fold change; Z.CTG (standard z score) ([2]; dose 2.00 uM): −0.396; Dose.FC.CTG ([2]; dose 10.00 uM): −0.132 log2 fold change; Z.CTG (standard z score) ([2]; dose 10.00 uM): −0.315; SSMD.LYZ.NS_Rep (strictly standardized mean difference) [3, 4]: 0.481; SSMD.LYZ.NS_Rep (strictly standardized mean difference) [3, 5]: 0.106; SSMD.LYZ.NS_Rep (strictly standardized mean difference) [3, 6]: 0.276; SSMD.LYZ.NS_Rep (strictly standardized mean difference) [3, 7]: 0.175; Dose.FC.LYZ.NS ([3]; dose 0.08 uM): 0.092 log2 fold change; Z.LYZ.NS (standard z score) ([3]; dose 0.08 uM): 0.805; Dose.FC.LYZ.NS ([3]; dose 0.40 uM): 0.013 log2 fold change; Z.LYZ.NS (standard z score) ([3]; dose 0.40 uM): 0.116; Dose.FC.LYZ.NS ([3]; dose 2.00 uM): 0.031 log2 fold change; Z.LYZ.NS (standard z score) ([3]; dose 2.00 uM): 0.270; Dose.FC.LYZ.NS ([3]; dose 10.00 uM): 0.020 log2 fold change; Z.LYZ.NS (standard z score) ([3]; dose 10.00 uM): 0.176 |
| C[C@H](Oc1cc(-c2cnn(C3CCNCC3)c2)cnc1N)c1c(Cl)ccc(F)c1Cl [(S)-crizotinib] | 0.881 | 0.808 | 0.084 | 0.103 | −0.343 | −0.383 | −0.491 | −0.720 | 0.125 log2 fold change | 0.016 log2 fold change | −0.059 log2 fold change | −0.111 log2 fold change | 0.742 | 0.190 | 0.285 | 0.034 | 0.241 log2 fold change | 0.575 | 0.054 log2 fold change | 0.130 | Dose.FC.CTG ([2]; dose 2.00 uM): 0.111 log2 fold change; Z.CTG (standard z score) ([2]; dose 2.00 uM): 0.266; Dose.FC.CTG ([2]; dose 10.00 uM): 0.019 log2 fold change; Z.CTG (standard z score) ([2]; dose 10.00 uM): 0.046; SSMD.LYZ.NS_Rep (strictly standardized mean difference) [3, 4]: 0.838; SSMD.LYZ.NS_Rep (strictly standardized mean difference) [3, 5]: 0.094; SSMD.LYZ.NS_Rep (strictly standardized mean difference) [3, 6]: −0.229; SSMD.LYZ.NS_Rep (strictly standardized mean difference) [3, 7]: −0.438; Dose.FC.LYZ.NS ([3]; dose 0.08 uM): 0.193 log2 fold change; Z.LYZ.NS (standard z score) ([3]; dose 0.08 uM): 1.679; Dose.FC.LYZ.NS ([3]; dose 0.40 uM): 0.009 log2 fold change; Z.LYZ.NS (standard z score) ([3]; dose 0.40 uM): 0.081; Dose.FC.LYZ.NS ([3]; dose 2.00 uM): −0.034 log2 fold change; Z.LYZ.NS (standard z score) ([3]; dose 2.00 uM): −0.294; Dose.FC.LYZ.NS ([3]; dose 10.00 uM): −0.068 log2 fold change; Z.LYZ.NS (standard z score) ([3]; dose 10.00 uM): −0.588 |
| C=C1C(=O)O[C@H]2[C@H]1CC/C(C)=C/CC[C@@]1(C)O[C@@H]21 [(−)-Parthenolide] | 0.679 | 0.799 | 0.763 | 1.067 | 0.506 | 0.441 | 0.345 | 0.530 | 0.124 log2 fold change | 0.165 log2 fold change | 0.068 log2 fold change | 0.082 log2 fold change | 0.498 | 0.736 | 0.482 | 0.257 | 0.135 log2 fold change | 0.322 | 0.228 log2 fold change | 0.544 | Dose.FC.CTG ([2]; dose 2.00 uM): 0.157 log2 fold change; Z.CTG (standard z score) ([2]; dose 2.00 uM): 0.376; Dose.FC.CTG ([2]; dose 10.00 uM): 0.157 log2 fold change; Z.CTG (standard z score) ([2]; dose 10.00 uM): 0.374; SSMD.LYZ.NS_Rep (strictly standardized mean difference) [3, 4]: 0.601; SSMD.LYZ.NS_Rep (strictly standardized mean difference) [3, 5]: 0.480; SSMD.LYZ.NS_Rep (strictly standardized mean difference) [3, 6]: 0.920; SSMD.LYZ.NS_Rep (strictly standardized mean difference) [3, 7]: 0.998; Dose.FC.LYZ.NS ([3]; dose 0.08 uM): 0.058 log2 fold change; Z.LYZ.NS (standard z score) ([3]; dose 0.08 uM): 0.506; Dose.FC.LYZ.NS ([3]; dose 0.40 uM): 0.067 log2 fold change; Z.LYZ.NS (standard z score) ([3]; dose 0.40 uM): 0.583; Dose.FC.LYZ.NS ([3]; dose 2.00 uM): 0.089 log2 fold change; Z.LYZ.NS (standard z score) ([3]; dose 2.00 uM): 0.776; Dose.FC.LYZ.NS ([3]; dose 10.00 uM): 0.133 log2 fold change; Z.LYZ.NS (standard z score) ([3]; dose 10.00 uM): 1.159 |
| N#Cc1c(O)c2c(-c3ccc(-c4ccccc4O)cc3)csc2[nH]c1=O [A-769662] | 0.365 | 0.426 | 0.472 | 0.460 | 0.488 | 1.191 | 0.119 | 0.121 | 0.066 log2 fold change | 0.071 log2 fold change | 0.184 log2 fold change | 0.019 log2 fold change | −0.255 | 0.019 | −0.312 | −0.056 | −0.074 log2 fold change | −0.177 | 0.007 log2 fold change | 0.016 | Dose.FC.CTG ([2]; dose 2.00 uM): −0.127 log2 fold change; Z.CTG (standard z score) ([2]; dose 2.00 uM): −0.304; Dose.FC.CTG ([2]; dose 10.00 uM): −0.015 log2 fold change; Z.CTG (standard z score) ([2]; dose 10.00 uM): −0.036; SSMD.LYZ.NS_Rep (strictly standardized mean difference) [3, 4]: 0.286; SSMD.LYZ.NS_Rep (strictly standardized mean difference) [3, 5]: 0.498; SSMD.LYZ.NS_Rep (strictly standardized mean difference) [3, 6]: 0.554; SSMD.LYZ.NS_Rep (strictly standardized mean difference) [3, 7]: 0.068; Dose.FC.LYZ.NS ([3]; dose 0.08 uM): 0.045 log2 fold change; Z.LYZ.NS (standard z score) ([3]; dose 0.08 uM): 0.394; Dose.FC.LYZ.NS ([3]; dose 0.40 uM): 0.069 log2 fold change; Z.LYZ.NS (standard z score) ([3]; dose 0.40 uM): 0.599; Dose.FC.LYZ.NS ([3]; dose 2.00 uM): 0.054 log2 fold change; Z.LYZ.NS (standard z score) ([3]; dose 2.00 uM): 0.473; Dose.FC.LYZ.NS ([3]; dose 10.00 uM): 0.009 log2 fold change; Z.LYZ.NS (standard z score) ([3]; dose 10.00 uM): 0.075 |
